The source made the active and inactive calls.
Experiments:
[1] = inhibitors of HIV Env-driven cell fusion, dose response, cherry-pick (AID 652057); format: functional, cell-based
[2] = inhibitors of clade B AD8 Env fusion, dose response, cell-based, cherry-pick (AID 652062); format: functional;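 also: luciferase signal from cell-cell fusion driven by HIV-1 clade B AD8 Env; potency is for inhibitors of fusion seen as a drop in luminescence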
[3] = ZM109 Env clade C HIV-1 fusion inhibitors, dose response, HeLa effector, CEM target cells, luciferase, cherry-pick (AID 652058); format: functional, cell-based
[4] = Luminescence-based cell-based high throughput dose response assay to identify activators of the DAF-12 from the parasite S. stercoralis (ssDAF-12).; format: functional
[5] = A Cell Based Secondary Assay To Explore Cytotoxicity of Compounds that Sensitize Mycobacterium Tuberculosis to Beta-Lactam Antibiotics.; format: functional
[6] = target: T1, Calpain-2 catalytic subunit (Sus scrofa, UniProt P43367); assay: pig calpain II inhibitor potency, dose response, biochemical, fluorogenic peptide substrate (AID 1420); format: functional
T1 sequence (P43367 whole entry): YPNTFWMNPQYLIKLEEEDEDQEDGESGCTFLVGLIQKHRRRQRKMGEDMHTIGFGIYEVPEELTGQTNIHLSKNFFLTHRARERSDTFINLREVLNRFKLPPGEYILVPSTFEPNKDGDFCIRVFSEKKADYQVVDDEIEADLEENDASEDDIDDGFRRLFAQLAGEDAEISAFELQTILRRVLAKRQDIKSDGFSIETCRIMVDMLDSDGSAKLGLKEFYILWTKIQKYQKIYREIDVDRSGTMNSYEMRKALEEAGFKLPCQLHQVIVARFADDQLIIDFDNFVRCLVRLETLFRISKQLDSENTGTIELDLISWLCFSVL

[7] = target: T2, DNA repair and recombination protein RAD54-like (Homo sapiens, UniProt Q92698); assay: inhibitors of human RAD54 branch migration, confirmation, biochemical, fluorescence, cherry-picked samples, dose series (AID 651657); format: functional
T2 sequence (Q92698 whole entry): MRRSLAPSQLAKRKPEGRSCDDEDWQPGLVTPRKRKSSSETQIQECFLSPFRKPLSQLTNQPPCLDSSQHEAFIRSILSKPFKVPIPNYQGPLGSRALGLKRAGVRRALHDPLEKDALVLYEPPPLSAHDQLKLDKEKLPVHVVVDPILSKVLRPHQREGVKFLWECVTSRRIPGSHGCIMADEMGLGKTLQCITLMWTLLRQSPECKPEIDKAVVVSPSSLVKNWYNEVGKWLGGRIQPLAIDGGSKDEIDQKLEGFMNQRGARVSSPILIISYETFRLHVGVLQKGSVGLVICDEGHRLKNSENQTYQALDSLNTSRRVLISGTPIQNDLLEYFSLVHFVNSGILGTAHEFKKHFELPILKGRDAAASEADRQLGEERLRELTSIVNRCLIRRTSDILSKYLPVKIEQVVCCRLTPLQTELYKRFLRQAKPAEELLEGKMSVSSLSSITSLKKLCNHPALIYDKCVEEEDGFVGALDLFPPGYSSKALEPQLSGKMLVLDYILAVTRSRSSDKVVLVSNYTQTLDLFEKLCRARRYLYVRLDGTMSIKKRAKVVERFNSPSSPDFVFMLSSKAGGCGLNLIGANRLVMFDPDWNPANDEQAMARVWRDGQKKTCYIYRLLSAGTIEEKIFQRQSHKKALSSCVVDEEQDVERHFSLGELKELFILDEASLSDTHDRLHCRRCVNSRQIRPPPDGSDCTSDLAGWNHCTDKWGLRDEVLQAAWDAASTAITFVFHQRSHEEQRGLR

[8] = target: T3, DNA repair protein RAD52 homolog (Homo sapiens, UniProt P43351); format: functional, biochemical
T3 sequence (P43351 whole entry): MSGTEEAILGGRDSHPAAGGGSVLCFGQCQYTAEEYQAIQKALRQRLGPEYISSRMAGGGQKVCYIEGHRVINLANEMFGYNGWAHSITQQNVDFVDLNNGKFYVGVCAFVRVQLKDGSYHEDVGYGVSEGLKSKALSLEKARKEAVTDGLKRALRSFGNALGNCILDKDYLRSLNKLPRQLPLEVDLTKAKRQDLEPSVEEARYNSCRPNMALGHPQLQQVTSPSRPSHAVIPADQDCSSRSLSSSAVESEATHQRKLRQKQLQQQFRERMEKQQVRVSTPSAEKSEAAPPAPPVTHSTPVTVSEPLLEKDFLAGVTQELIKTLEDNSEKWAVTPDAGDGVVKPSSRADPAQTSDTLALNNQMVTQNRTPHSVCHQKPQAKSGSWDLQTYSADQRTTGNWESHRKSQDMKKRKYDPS

[9] = tested on: BJ; assay: cells; format: functional, cell-based; settings: Homo sapiens
[10] = cytotoxicity toward DRD oncogenic fibroblasts, dose response, cell-based, non-viral oncogenic, luminescence (AID 1934); format: functional; settings: Homo sapiens
[11] = tested on: BJ; assay: cytotoxicity toward BJ-TERT-LT-ST fibroblasts, dose response, cell-based, RAS-independent, luminescence (AID 1935); format: functional; settings: Homo sapiens;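 also: BJ fibroblasts immortalized with TERT plus LT and ST oncogenes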
[12] = tested on: BJ; assay: cytotoxicity toward BJ-TERT fibroblasts, dose response, cell-based, RAS-independent, luminescence (AID 1933); format: functional; settings: Homo sapiens
[13] = tested on: Streptococcus; assay: Group A Streptococcus viability loss, dose response, counter-screen for streptokinase expression inhibitor project, luminescence, BacTiterGlo (AID 1915); format: functional, organism-based;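 also: potency for reduction of bacterial viability or growth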
[14] = target: T4, Streptokinase A (Streptococcus pyogenes serotype M1, UniProt P10520); assay: S. pyogenes streptokinase expression inhibitors, potency, dose response, plasminogen activation absorbance, OD405 (AID 1914); format: functional, Streptococcus pyogenes M1 GAS;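 also: secreted streptokinase activity via plasminogen activation per viability signal from cell pellet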
T4 sequence (P10520 whole entry): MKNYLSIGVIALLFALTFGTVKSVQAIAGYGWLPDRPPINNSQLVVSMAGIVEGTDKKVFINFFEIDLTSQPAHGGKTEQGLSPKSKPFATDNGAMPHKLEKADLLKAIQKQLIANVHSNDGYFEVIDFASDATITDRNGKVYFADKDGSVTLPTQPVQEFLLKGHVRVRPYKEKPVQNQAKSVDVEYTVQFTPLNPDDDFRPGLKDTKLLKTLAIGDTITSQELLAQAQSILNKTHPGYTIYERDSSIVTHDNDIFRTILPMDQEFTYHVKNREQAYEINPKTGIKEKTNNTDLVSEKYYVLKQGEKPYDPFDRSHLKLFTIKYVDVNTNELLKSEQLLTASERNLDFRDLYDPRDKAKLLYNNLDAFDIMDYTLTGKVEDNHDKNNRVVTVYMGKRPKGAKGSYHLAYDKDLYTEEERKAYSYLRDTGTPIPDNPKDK

[15] = Luminescence Cell-Based Dose Retest to Confirm Inhibitors of Cancer Stem Cells. [Related pubchem assays (depositor defined):AID2717, AID2721]; format: functional; settings: Homo sapiens
[16] = tested on: Streptococcus sp. 'group A'; assay: growth inhibition of control SK(-) GAS strain, dose response, counter-screen for streptokinase expression inhibitor project, luminescence, kanamycin, BacTiterGlo, confirmation (AID 1900); format: functional, organism-based
[17] = target: DNA dC->dU-editing enzyme APOBEC-3G (Homo sapiens, UniProt Q9HC16); format: functional;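 also: Dose-response counterscreen measuring inhibition of APOBEC3G DNA deaminase activity, run while confirming APOBEC3A inhibitors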
DNA dC->dU-editing enzyme APOBEC-3G, sequence (Q9HC16 whole entry): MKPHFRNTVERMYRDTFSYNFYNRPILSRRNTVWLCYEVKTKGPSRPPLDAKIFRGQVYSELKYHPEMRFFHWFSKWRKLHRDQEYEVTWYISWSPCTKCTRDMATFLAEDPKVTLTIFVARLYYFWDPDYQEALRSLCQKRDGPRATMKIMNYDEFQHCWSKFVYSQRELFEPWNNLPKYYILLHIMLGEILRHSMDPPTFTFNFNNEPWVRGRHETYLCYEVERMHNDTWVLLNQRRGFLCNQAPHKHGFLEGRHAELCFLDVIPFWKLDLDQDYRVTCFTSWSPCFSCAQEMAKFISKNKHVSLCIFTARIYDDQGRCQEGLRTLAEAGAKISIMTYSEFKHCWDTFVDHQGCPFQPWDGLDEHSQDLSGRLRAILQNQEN

[18] = target: DNA dC->dU-editing enzyme APOBEC-3A (Homo sapiens, UniProt P31941); assay: Dose Response confirmation of small molecule APOBEC3A DNA Deaminase Inhibitors via a fluorescence-based single-stranded DNA deaminase assay. [Related pubchem assays (depositor defined):AID493011, AID493024]; format: functional
DNA dC->dU-editing enzyme APOBEC-3A, sequence (P31941 whole entry): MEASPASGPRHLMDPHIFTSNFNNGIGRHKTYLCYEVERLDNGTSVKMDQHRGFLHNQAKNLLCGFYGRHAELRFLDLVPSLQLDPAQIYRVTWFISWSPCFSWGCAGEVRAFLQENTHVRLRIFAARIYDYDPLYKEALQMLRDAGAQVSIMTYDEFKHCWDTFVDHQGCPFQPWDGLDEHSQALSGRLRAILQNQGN

[19] = growth suppression of beta-catenin-knockout colon cells, dose response, cell-based, HCT116, human colon tumor (AID 1045); format: functional;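 also: HCT116 colon tumor cells with beta catenin knocked out; cells exposed to compound for 60 hours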
[20] = growth suppression of PTEN-null colon cells, dose response, cell-based, HCT116 PTEN knockout (AID 1047); format: functional;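 also: HCT116 colon tumor cells with PTEN knocked out; cells exposed to compound for 60 hours before readout; potency for loss of cell viability measured by luminescence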
[21] = target: T5, Replicative DNA helicase DnaB (Mycobacterium tuberculosis, UniProt P9WMR3); assay: DnaB intein splicing inhibitors, dose response, biochemical, cell-free fluorescence (AID 449749); format: functional
T5 sequence (P9WMR3 whole entry): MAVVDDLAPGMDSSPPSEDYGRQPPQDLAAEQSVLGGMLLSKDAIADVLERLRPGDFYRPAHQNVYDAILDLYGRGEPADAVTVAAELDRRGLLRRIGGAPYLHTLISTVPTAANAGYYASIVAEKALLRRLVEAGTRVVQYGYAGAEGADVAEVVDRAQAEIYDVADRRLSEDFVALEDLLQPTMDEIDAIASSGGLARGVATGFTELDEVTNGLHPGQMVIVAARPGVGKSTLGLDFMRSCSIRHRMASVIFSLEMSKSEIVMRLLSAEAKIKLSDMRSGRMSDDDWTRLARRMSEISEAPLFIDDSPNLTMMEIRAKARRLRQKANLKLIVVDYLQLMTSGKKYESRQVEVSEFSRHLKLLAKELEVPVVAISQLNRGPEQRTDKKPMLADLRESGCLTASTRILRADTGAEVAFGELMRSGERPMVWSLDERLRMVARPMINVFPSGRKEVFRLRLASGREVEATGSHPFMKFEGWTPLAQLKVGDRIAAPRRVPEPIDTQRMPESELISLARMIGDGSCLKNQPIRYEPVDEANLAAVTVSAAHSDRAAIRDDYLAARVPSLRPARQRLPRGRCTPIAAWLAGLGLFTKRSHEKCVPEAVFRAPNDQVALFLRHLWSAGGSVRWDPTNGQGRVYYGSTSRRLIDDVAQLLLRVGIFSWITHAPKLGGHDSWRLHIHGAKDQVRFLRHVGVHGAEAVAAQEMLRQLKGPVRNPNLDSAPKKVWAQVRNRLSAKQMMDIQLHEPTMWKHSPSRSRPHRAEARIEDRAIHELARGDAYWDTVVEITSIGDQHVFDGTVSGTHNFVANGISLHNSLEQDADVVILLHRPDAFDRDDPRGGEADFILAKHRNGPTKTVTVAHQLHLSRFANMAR

[22] = target: T6, Protein RecA (Mycobacterium tuberculosis, UniProt P9WHJ3); assay: Fluorescence Cell-Free Homogeneous Dose Retest to Identify Inhibitors of RecA-Intein Splicing Activity. [Related pubchem assays (depositor defined):AID2097, AID2223, AID489010, AID492950]; format: functional
T6 sequence (P9WHJ3 whole entry): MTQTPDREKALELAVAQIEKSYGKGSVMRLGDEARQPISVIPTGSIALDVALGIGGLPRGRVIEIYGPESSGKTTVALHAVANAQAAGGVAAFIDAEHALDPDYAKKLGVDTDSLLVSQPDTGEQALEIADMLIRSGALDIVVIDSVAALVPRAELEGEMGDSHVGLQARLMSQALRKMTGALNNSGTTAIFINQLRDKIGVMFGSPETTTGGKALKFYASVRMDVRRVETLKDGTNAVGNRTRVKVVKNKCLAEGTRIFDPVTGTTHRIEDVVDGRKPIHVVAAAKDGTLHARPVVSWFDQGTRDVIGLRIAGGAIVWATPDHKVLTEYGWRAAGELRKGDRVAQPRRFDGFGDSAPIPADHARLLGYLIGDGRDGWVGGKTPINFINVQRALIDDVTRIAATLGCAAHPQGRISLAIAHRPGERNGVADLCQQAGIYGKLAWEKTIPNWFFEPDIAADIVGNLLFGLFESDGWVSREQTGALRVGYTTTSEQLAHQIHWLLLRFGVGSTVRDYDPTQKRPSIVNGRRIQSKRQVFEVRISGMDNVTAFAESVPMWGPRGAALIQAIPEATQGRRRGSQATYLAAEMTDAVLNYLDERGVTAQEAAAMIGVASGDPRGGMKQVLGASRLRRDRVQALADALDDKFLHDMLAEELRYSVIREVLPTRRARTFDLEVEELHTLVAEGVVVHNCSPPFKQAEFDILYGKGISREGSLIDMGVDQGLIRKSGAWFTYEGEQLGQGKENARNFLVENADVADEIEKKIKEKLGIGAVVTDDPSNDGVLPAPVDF

SMILES: C[C@H](CO)N1C[C@H](C)[C@H](CN(C)C(=O)NC2CCCC2)Oc2cc(C#Cc3ccc(F)cc3)ccc2S1(=O)=O
- AC50 [1]: 24.5 µM (active)
- AC50 [2]: 24.9 µM (active)
- AC50 [3]: 13.2 µM (active)

SMILES: Cc1ccsc1/C=N/Nc1nc2ccccc2s1
- IC50 [4]: > 67.6 µM (inactive)

SMILES: COc1ccc(/C=C2\N=C(SC)N(c3ccccc3OC)C2=O)cc1
- CC50 [5]: 37 µM (active)

SMILES: COc1c(F)c(F)c(C(=O)Nc2c(C)cc(Br)cc2C)c(F)c1F
- CC50 [5]: 35.6 µM (active)

SMILES: Cc1ccc(OCc2nnc(S)n2C2CCCCC2)cc1
- IC50 [6]: 38.6 µM (not active)

SMILES: COc1cccc(-c2cc(NC=O)c3ncc(-c4cccc(C(=O)NCCN(C)C)c4)n3c2)c1
- AC50 [7]: 22.3 µM (active)
- AC50 [8]: 3.43 µM (active)

SMILES: CCN(CC)c1ccc(N/C=C2\C(=O)NC(=O)N(c3ccc(Cl)cc3)C2=O)cc1
- CC50 [5]: > 40 µM (active)

SMILES: CCN1C(=O)/C(=C\c2cn(-c3ccccc3)nc2-c2cccnc2)SC1=S
- EC50 [9]: > 150 µM (not active)
- EC50 [10]: 17.9 µM (active)
- EC50 [11]: > 150 µM (inconclusive)
- EC50 [12]: 7.41 µM (inconclusive)
- IC50 [6]: > 50 µM (not active)

SMILES: COc1ccc(N2C(=O)N(Cc3ccc(C)cc3)c3ccccc3S2(=O)=O)cc1
- IC50 [6]: 18.5 µM (not active)

SMILES: C=C(C)C1Cc2c(C)nn(-c3cccc4ccccc34)c2C1 (stereo not drawn)
- CC50 [5]: > 40 µM (active)
- EC50 [13]: > 150 µM (not active)
- EC50 [14]: 16.8 µM (active)
- AC50 [15]: 6.69 µM (active)
- EC50 [16]: 7.08 µM (active)

SMILES: COc1ccc(NC(=O)COc2ccc(/C=C/c3cc[n+](C)cc3)cc2OC)cc1
- IC50 [17]: 3.92 µM (active)
- IC50 [18]: 3.69 µM (active)

SMILES: O=S(=O)(Cc1ccccc1)c1cnc2ccccc2n1
- CC50 [5]: 34 µM (active)
- EC50 [19]: 12.2 µM (active)
- EC50 [20]: 14.1 µM (active)
- AC50 [21]: > 380 µM (inactive)
- EC50 [22]: 18.3 µM (active)

SMILES: CCc1noc(C)c1C(=O)Nc1cc(S(=O)(=O)N2CCOCC2)ccc1N1CCN(CC)CC1
- IC50 [17]: 5.53 µM (active)
- IC50 [18]: 3.46 µM (active)

SMILES: Cc1cccn2c(=O)c3cc(C(=O)NC4CCCC4)c(=N)n(CCCN4CCOCC4)c3nc12
- AC50 [7]: 21.5 µM (active)
- AC50 [8]: 9.37 µM (active)

SMILES: COc1ccc(C(=O)C23CC4CC(C2)CC(C(=O)c2ccc(OC)cc2)(C4)C3)cc1
- IC50 [6]: < 0.4 µM (not active)

Source: ChEMBL document CHEMBL1201862, “PubChem BioAssay data set” (2004)
